#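 Briefly, cells in 96-well plates were exposed to five compound concentrations for 48 h, and endpoints were estimated by linear interpolation. GI50: concentration for 50% inhibition of growth.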 Active and inactive are the calls of the source. Rule as the data show it: active = GI50 up to about 1.1 µM and inactive = higher.
# Columns and labels:
# Experiment in all cases: DTP human tumour cell line panel, 48 h
# [1] = tested on: NCI-H226
# [2] = tested on: BT-549
# [3] = tested on: OVCAR-4
# [4] = tested on: DMS-114
# [5] = tested on: ACHN
# [6] = tested on: TK-10
# [7] = tested on: XF498
# [8] = tested on: MDA-MB-231
# [9] = tested on: SK-MEL-5
# [10] = tested on: SR
# [11] = tested on: A498
# [12] = tested on: HT-29
# [13] = tested on: DLD-1
# [14] = tested on: Malme-3M
# [15] = tested on: SF-268
# [16] = tested on: OVCAR-5
# [17] = tested on: M19-MEL
# [18] = tested on: SK-OV-3
# [19] = tested on: EKVX
# [20] = tested on: KM12
# [21] = tested on: LOX IMVI
# [22] = tested on: SNB-75
# [23] = tested on: OVCAR-3
# [24] = tested on: SNB-19
# [25] = tested on: HCT-15
# [26] = tested on: T47D
# [27] = tested on: M14
# [28] = tested on: RXF 393
# [29] = tested on: MCF7
# [30] = tested on: HCT-116
# [31] = tested on: MDA-MB-435
# [32] = tested on: KM-20L2
# [33] = tested on: UACC-257
# [34] = tested on: SK-MEL-28
# [35] = tested on: NCI-H23
# [36] = tested on: K562
# [37] = tested on: HOP-62
# [38] = tested on: SW-620
# [39] = tested on: SK-MEL-2
# [40] = tested on: NCI-H522
# [41] = tested on: NCI/ADR-RES
# [42] = tested on: RPMI-8226
# [43] = tested on: SF-539
# [44] = tested on: NCI-H460
# [45] = tested on: MDA-N
# [46] = tested on: HL-60
# [47] = tested on: DU-145
# [48] = tested on: OVCAR-8
# [49] = tested on: CCRF-CEM
# [50] = tested on: IGROV-1
# [51] = tested on: CAKI-1
# [52] = tested on: SN12C
# [53] = tested on: HOP-92
# [54] = tested on: U-251
# [55] = tested on: PC-3
# [56] = tested on: COLO 205
# [57] = tested on: UO-31
# [58] = tested on: UACC-62
# [59] = tested on: A549
# [60] = tested on: 786-0
# [61] = tested on: SF-295
# [62] = tested on: MOLT-4
# [63] = tested on: Hs-578T
# [64] = tested on: LXFL 529
# [65] = tested on: DMS-273
# [66] = tested on: HCC 2998
smiles,measurement,setting,value
COC1C(O)=C2C(=O)O/C(C)=C/C=C/C=C/C=C\CC(c3ccccc3)NC(=O)\C=C/C=C\C=C\C=C\[C@@]2(C)[C@@H]1O (some centres undefined),GI50,[1],0.0175 µM (active)
same,GI50,[2],< 0.01 µM (active)
same,GI50,[3],0.0444 µM (active)
same,GI50,[4],0.0249 µM (active)
same,GI50,[5],< 0.01 µM (active)
same,GI50,[6],< 0.0361 µM (active)
same,GI50,[7],0.0213 µM (active)
same,GI50,[8],< 0.01 µM (active)
same,GI50,[9],0.0395 µM (active)
same,GI50,[10],< 0.0125 µM (active)
same,GI50,[11],0.0129 µM (active)
same,GI50,[12],< 0.01 µM (active)
same,GI50,[13],< 0.01 µM (active)
same,GI50,[14],< 0.0223 µM (active)
same,GI50,[15],< 0.028 µM (active)
same,GI50,[16],0.0234 µM (active)
same,GI50,[17],0.0538 µM (active)
same,GI50,[18],< 0.021 µM (active)
same,GI50,[19],0.0357 µM (active)
same,GI50,[20],< 0.0146 µM (active)
same,GI50,[21],0.0176 µM (active)
same,GI50,[22],< 0.01 µM (active)
same,GI50,[23],< 0.0189 µM (active)
same,GI50,[24],< 0.01 µM (active)
same,GI50,[25],< 0.01 µM
same,GI50,[26],0.0239 µM (active)
same,GI50,[27],< 0.0371 µM (active)
same,GI50,[28],0.0128 µM (active)
same,GI50,[29],< 0.01 µM (active)
same,GI50,[30],< 0.01 µM (active)
same,GI50,[31],< 0.01 µM (active)
same,GI50,[32],< 0.01 µM (active)
same,GI50,[33],< 0.0129 µM (active)
same,GI50,[34],0.0155 µM (active)
same,GI50,[35],0.0144 µM (active)
same,GI50,[36],< 0.01 µM (active)
same,GI50,[37],< 0.0334 µM (active)
same,GI50,[38],< 0.01 µM (active)
same,GI50,[39],< 0.0218 µM (active)
same,GI50,[40],< 0.01 µM (active)
same,GI50,[41],< 0.01 µM (active)
same,GI50,[42],< 0.01 µM (active)
same,GI50,[43],< 0.01 µM (active)
same,GI50,[44],< 0.01 µM (active)
same,GI50,[45],0.033 µM (active)
same,GI50,[46],< 0.01 µM (active)
same,GI50,[47],0.0117 µM (active)
same,GI50,[48],0.0157 µM (active)
same,GI50,[49],< 0.01 µM (active)
same,GI50,[50],< 0.0211 µM (active)
same,GI50,[51],< 0.0203 µM (active)
same,GI50,[52],0.0986 µM (active)
same,GI50,[53],< 0.01 µM (active)
same,GI50,[54],< 0.01 µM (active)
same,GI50,[55],< 0.01 µM (active)
same,GI50,[56],0.0104 µM (active)
same,GI50,[57],< 0.0161 µM (active)
same,GI50,[58],0.0675 µM (active)
same,GI50,[59],< 0.01 µM (active)
same,GI50,[60],0.017 µM (active)
same,GI50,[61],< 0.01 µM (active)
same,GI50,[62],< 0.0181 µM (active)
same,GI50,[63],< 0.01 µM (active)
CSc1nc2c(nc(C)c(=O)n2C2OCC(OC(C)=O)C(OC(C)=O)C2OC(C)=O)c(=O)[nH]1 (centres undefined),GI50,[3],> 100 µM (inactive)
same,GI50,[4],> 100 µM (inactive)
same,GI50,[5],> 100 µM (inactive)
same,GI50,[6],> 100 µM (inactive)
same,GI50,[7],> 100 µM (inactive)
same,GI50,[9],> 100 µM (inactive)
same,GI50,[10],> 100 µM (inactive)
same,GI50,[11],> 100 µM (inactive)
same,GI50,[12],> 100 µM (inactive)
same,GI50,[13],> 100 µM (inactive)
same,GI50,[14],> 100 µM (inactive)
same,GI50,[15],> 100 µM (inactive)
same,GI50,[16],> 100 µM (inactive)
same,GI50,[17],> 100 µM (inactive)
same,GI50,[18],> 100 µM (inactive)
same,GI50,[19],> 100 µM (inactive)
same,GI50,[20],> 100 µM (inactive)
same,GI50,[21],> 100 µM (inactive)
same,GI50,[22],> 100 µM (inactive)
same,GI50,[23],> 100 µM (inactive)
same,GI50,[24],> 100 µM (inactive)
same,GI50,[25],> 100 µM
same,GI50,[27],> 100 µM (inactive)
same,GI50,[28],> 100 µM (inactive)
same,GI50,[30],> 100 µM (inactive)
same,GI50,[32],> 100 µM (inactive)
same,GI50,[33],> 100 µM (inactive)
same,GI50,[34],> 100 µM (inactive)
same,GI50,[64],> 100 µM (inactive)
same,GI50,[35],> 100 µM (inactive)
same,GI50,[36],> 100 µM (inactive)
same,GI50,[37],> 100 µM (inactive)
same,GI50,[38],> 100 µM (inactive)
same,GI50,[39],> 100 µM (inactive)
same,GI50,[40],> 100 µM (inactive)
same,GI50,[42],> 100 µM (inactive)
same,GI50,[44],> 100 µM (inactive)
same,GI50,[46],> 100 µM (inactive)
same,GI50,[48],> 100 µM (inactive)
same,GI50,[49],> 100 µM (inactive)
same,GI50,[50],> 100 µM (inactive)
same,GI50,[51],88.5 µM (inactive)
same,GI50,[65],> 100 µM (inactive)
same,GI50,[52],> 100 µM (inactive)
same,GI50,[53],3.76 µM (inactive)
same,GI50,[54],> 100 µM (inactive)
same,GI50,[56],> 100 µM (inactive)
same,GI50,[57],> 100 µM (inactive)
same,GI50,[58],> 100 µM (inactive)
same,GI50,[59],> 100 µM (inactive)
same,GI50,[60],> 100 µM (inactive)
same,GI50,[66],> 100 µM (inactive)
same,GI50,[61],> 100 µM (inactive)
same,GI50,[62],> 100 µM (inactive)
CC12CCC(=O)N1[C@@H](c1ccccc1)[C@@H](c1ccccc1)O2 (some centres undefined),GI50,[1],> 100 µM (inactive)
same,GI50,[3],> 100 µM (inactive)
same,GI50,[4],> 100 µM (inactive)
same,GI50,[5],> 100 µM (inactive)
same,GI50,[7],> 100 µM (inactive)
same,GI50,[9],> 100 µM (inactive)
same,GI50,[11],> 100 µM (inactive)
same,GI50,[12],> 100 µM (inactive)
same,GI50,[13],44 µM (inactive)
same,GI50,[14],> 100 µM (inactive)
same,GI50,[15],> 100 µM (inactive)
same,GI50,[16],> 100 µM (inactive)
same,GI50,[17],> 100 µM (inactive)
same,GI50,[18],68.9 µM (inactive)
same,GI50,[20],> 100 µM (inactive)
same,GI50,[21],> 100 µM (inactive)
same,GI50,[22],> 100 µM (inactive)
same,GI50,[23],> 100 µM (inactive)
same,GI50,[24],> 100 µM (inactive)
same,GI50,[25],> 100 µM
same,GI50,[27],> 100 µM (inactive)
same,GI50,[30],> 100 µM (inactive)
same,GI50,[32],> 100 µM (inactive)
same,GI50,[33],> 100 µM (inactive)
same,GI50,[64],> 100 µM (inactive)
same,GI50,[36],> 100 µM (inactive)
same,GI50,[37],> 100 µM (inactive)
same,GI50,[38],> 100 µM (inactive)
same,GI50,[39],> 100 µM (inactive)
same,GI50,[40],> 100 µM (inactive)
same,GI50,[43],> 100 µM (inactive)
same,GI50,[44],> 100 µM (inactive)
same,GI50,[46],> 100 µM (inactive)
same,GI50,[48],> 100 µM (inactive)
same,GI50,[49],> 100 µM (inactive)
same,GI50,[50],> 100 µM (inactive)
same,GI50,[51],> 100 µM (inactive)
same,GI50,[52],> 100 µM (inactive)
same,GI50,[53],84.7 µM (inactive)
same,GI50,[56],> 100 µM (inactive)
same,GI50,[57],> 100 µM (inactive)
same,GI50,[58],42.5 µM (inactive)
same,GI50,[59],> 100 µM (inactive)
same,GI50,[60],> 100 µM (inactive)
same,GI50,[66],> 100 µM (inactive)
same,GI50,[61],> 100 µM (inactive)
same,GI50,[62],> 100 µM (inactive)
